Experimental data published in PMC10111022, “Comparison of pharmacological inhibitors of lysine-specific demethylase 1 in glioblastoma stem cells reveals inhibitor-specific efficacy profiles” (Frontiers in Neurology, 2023).
pIC50: −log10 of the molar value.

Assays:
MDA-GSC 7–2 = assay: Cell viability dose response (IC50), MDA-GSC 7–2; type: cell-based; details: Homo sapiens, mean of three independent experiments
Protocol: (§1) MDA-GSCs were plated at 50,000 cells/well into 12-well plates at and allowed to grow for 5 days until neurospheres were formed. The cells were then treated with either TCP, GSK-LSD1, or RN-1 at various concentrations for 5 days. Next, the cells were collected and neurospheres were dissociated with Accutase (BioLegend; San Diego, CA). Cell viability was determined using a trypan dye exclusion assay and read with the Vi-Cell XR Cell Viability Analyzer (Beckman Coulter; Brea, CA). NHAs were plated at 50,000 cells/well into 12-well plates and allowed to adhere overnight. The following day, NHAs were treated with the LSD1 inhibitors. After 5 days, the cells were detached using TrypLE and assessed with the trypan blue dye exclusion assay.
(§2) The alamarBlue cell viability (Bio-Rad; Hercules, CA) was performed on the MDA-GSCs according to the manufacturer’s protocol. The cells were plated at 5,000 cell/well into a 96-well plate and allowed to grow for 5 days. After 5 days, the alamarBlue reagent was added and fluorescence was measured with the Synergy 2 (BioTek Instruments; Winooski, VT) plate reader according to the manufacturer’s protocol.

MDA-GSC 20 = assay: Cell viability dose response (IC50), MDA-GSC 20; type: cell-based; details: Homo sapiens, mean of three independent experiments
Protocol: as §1, §2

MDA-GSC lines [1] = assay: Cell proliferation of MDA-GSCs tracked over 5 days; type: cell-based, Human; details: 400 μM, after 5 days; all MDA-GSC lines apart from MDA-GSC311
Protocol: as §2
Figure 3 Effects of GSK-LSD1 on GSCs cell proliferation and neurosphere formation. (A–I) Cell proliferation of MDA-GSCs was tracked over 5 days after treatment with GSK-LSD1 at 400 μM. Day five data was analyzed with a student’s t-test. ns = p > 0.05, *p ≤ 0.05, **p ≤ 0.01, ***p ≤ 0.001, ****p ≤ 0.0001. (J) Bar graphs showing the number of neurospheres formed by MDA-GSCs after treatment with GSK-LSD1. Grouped data was analyzed using a two-way ANOVA with the Šídák multiple comparisons test. ns = p > 0.05, ***p ≤ 0.001, ****p ≤ 0.0001.

human T cells = tested on: human T cells; design: method as in PMID 32166329; details: direct effect on human T cells; cited from earlier work
NHA = assay: Cell viability dose response (IC50), normal human astrocytes; type: cell-based
Protocol: as §1, §2

MDA-GSC8-11 = assay: qPCR of resistance-related genes, MDA-GSC8-11; type: cell-based, Human; details: MDA-GSC8-11 (resistant)
Protocol: (§3) Total RNA was extracted using RNeasy Plus Mini Kit (Qiagen; Hilden, Germany) following the manufacturer’s protocol. cDNA was synthesized with the iScript cDNA synthesis kit (Bio-Rad; Hercules, CA), qPCR was performed using Forget-Me-Not EvaGreen qPCR kit (Biotium; Fremont, CA), and samples were analyzed with the LightCycler96 (Roche; Basel, Switzerland). Cq values were normalized to PPIA and reported as relative fold change from untreated control.

brain tissue = assay: qPCR of resistance-related genes in brain tissue of treated xenograft mouse; type: in vivo; details: treated mouse vs control mouse after succumbing to tumor burden
Protocol: as §3
We then measured the gene expression of the candidate gene set in brain tissue of a mouse treated with GSK-LSD1 compared to a control mouse after they succumbed to tumor burden. […] Finally, we assessed the presence of this gene set in patient data acquired from TCGA ([17], [18]). In a dataset of glioblastoma patient samples, LSD1 expression has an inverse relationship with the genes that correlate with resistance (Figures 6H,I). We then assessed the correlation between resistance related gene expression and GBM subtypes using TCGA (Figure 6J). From this analysis, we find that the mesenchymal subtype has an increased expression of HKDC1 and RAB3IL1 compared to classical and proneural. […] Overall, our established gene set may predict resistance to LSD1 inhibition and is concordant across in vitro experiments, in vivo studies, and is expressed in a LSD1 dependent manner in GBM patients.

MDA-GSC20 = assay: qPCR of resistance-related genes, MDA-GSC20; type: cell-based, Human; details: MDA-GSC20 (resistant)
Protocol: as §3

MDA-GSC17 = assay: qPCR of resistance-related genes, MDA-GSC17; type: cell-based, Human; details: MDA-GSC17 (sensitive)
Protocol: as §3

MDA-GSC 311 = assay: Cell viability dose response (IC50), MDA-GSC 311; type: cell-based; details: Homo sapiens, mean of three independent experiments
Protocol: as §1, §2

MDA-GSC lines [2] = assay: Cell viability across the panel of nine MDA-GSC lines; type: cell-based, Human; details: many/several MDA-GSC lines, dose response curves Figure 2
Protocol: as §1, §2

MDA-GSC 8–11 = assay: Cell viability dose response (IC50), MDA-GSC 8–11; type: cell-based; details: Homo sapiens, mean of three independent experiments
Protocol: as §1, §2

[3] = tested on: MDA-GSC311, MDA-GSC20, MDA-GSC23, MDA-GSC8-11; assay: Colony (neurosphere) formation assay; type: cell-based, Human; details: three of the four cell lines; 200-400 μM, 3 weeks
Protocol: Colony formation assay was performed on MDA-GSC 311, MDA-GSC 20, MDA-GSC 23, and MDA-GSC 8–11. Cells were plated in triplicate into clear, flat-bottom 96-well plates at 3 cells/well into 100 μL of media. MDA-GSCs were treated with 100 μL of GSK-LSD1 and allowed to grow for 3 weeks at 37°C before scoring. The final concentration of GSK-LSD1 in each well was determined using the IC50 in each cell line (MDA-GSC 311 at 200 μM, MDA-GSC 20 at 300 μM, MDA-GSC 23 at 200 μM, MDA-GSC 8–11 at 400 μM). Clonogenicity was scored using the Cell3iMager (Screen Life Science; Elk Grove Village, IL) to count the number of wells with colony formation as positive and wells without colony formation as negative.

MDA-GSC 262 = assay: Cell viability dose response (IC50), MDA-GSC 262; type: cell-based; details: Homo sapiens, mean of three independent experiments
Protocol: as §1, §2

MDA-GSC 7–11 = assay: Cell viability dose response (IC50), MDA-GSC 7–11; type: cell-based; details: Homo sapiens, mean of three independent experiments
Protocol: as §1, §2

c1ccc([C@@H]2C[C@H]2NC2CCNCC2)cc1 [GSK-LSD1]
pIC50 (MDA-GSC 7–2): 3.29 | pIC50 (MDA-GSC 20): < 3.12 | effect on MDA-GSC proliferation (MDA-GSC lines [1]): Consistent anti-proliferative effects | human T cell growth (human T cells): minimally impacted | pIC50 (NHA; Homo sapiens, Astrocyte, NHA, mean of three independent experiments): < 3.12 | effect on NHA viability (NHA; NHA treated at the maximum concentration tested for each compound): minimal effect | expression of resistance-related genes (MDA-GSC8-11): increase in the same two gene | expression of candidate gene set in brain tissue (brain tissue): three of the four genes, except for FAM213A, were upregulated | expression of resistance-related genes (FTH1, RAB39B, HKDC1, FAM213A) (MDA-GSC20): increase in all four genes | expression of resistance-related genes (MDA-GSC17): not | pIC50 (MDA-GSC 311): < 3.12 | concentrations at which MDA-GSC viability was reduced (MDA-GSC lines [2]): 250 to 750 µM | pIC50 (MDA-GSC 8–11): 3.14 | capacity to form neurospheres from single cells [3]: reduced capacity to form neurospheres | pIC50 (MDA-GSC 262): < 3.12 | pIC50 (MDA-GSC 7–11): 3.22
